Data reported in patent US10159663B2, “Substituted macrocycles useful as kinases inhibitors and methods of use thereof” (TELIGENE LTD., priority 2014, dated 2018).
≈ marks a conversion by molar mass, not a printed value. Where two headings read alike, the source gives them in different places.

How the values were obtained:
[1] = Rate of metabolism in rat whole blood; assay type: in vitro ADME; conditions: for rate of metabolism (k) in Rat whole blood: 1.0 μM, 37° C., 0-2 h
Procedure: A Representative Number of Compounds were Tested in Rat Whole Blood to Measure Rate of Metabolism.
Preparation of Stock Solutions: Stock solution of test compound was provided in 100% DMSO. The stock solution for each compound was diluted into 500 μM with a mixture of acetonitrile: PBS buffer (2:8) and then diluted into rat blood (pH 7.4) to achieve a final concentration of 1.0 μM.
Incubation: 1.0 μM of test compound in duplicate was incubated in blood at 37° C. Aliquots of 50 μL sample were collected at 0 h, 0.25 h, 0.5 h, 1 h, and 2 h.
Sample preparation: Reactions were terminated at various time points (0, 0.25, 0.5, 1, 2 h) by adding 150 μL of ice-cold acetonitrile containing an internal standard. Centrifuge the plate (4000 rpm, 15 min). 100 μL of supernatants were transferred into a daughter plate containing 200 μL of H2O and 0.1% formic acid (v/v) in each well. The samples were analyzed with UPLC-MS/MS.
Data analysis: The peak area ratio of test compound to internal standard is plotted as a percentage of the relevant zero time point control (% Remained) for each reaction. The rate of metabolism (k) is the slope of the linear regression from log percentage remaining versus incubation time. The T½ is calculated as −0.693/k.

[2] = tested on: HCC827 Cell; assay: Cell proliferation assay (MTT); assay type: cell-based; conditions: Homo sapiens, 72 hours treatment
Procedure: (§1) A Representative Number of Compounds were Assayed Against Different Cancer Cell Lines Such as HCC827 and NCI-H69 Using the Cell Proliferation Assays:
(§2) Cell Proliferation Assays:
(§3) 1. 5×10^3 cells per well in 100 μl of medium were seeded in 96-well plate, while the medium here contained 5% FBS.
(§4) 2. 24 hours later, 100 μl fresh medium was added with various concentrations of compounds into each well, while the medium here was free of FBS.
(§5) 3. After the cells were treated with compounds for 72 hours, 20 μl MTT (5 mg/ml) was added into each well, and then the assay plate was incubated at 37° C. for 4 more hours.
(§6) 4. The assay plate was centrifuged at 800 g for 10 min. The medium was aspirated, 150 μl DMSO was added into each well. The plate was gently shaken for 10 min.
(§7) 5. The absorbance at 570 nm was measured on the plate reader.

[3] = tested on: NCI-H69 Cell; assay: Cell proliferation assay (MTT); assay type: cell-based; conditions: Homo sapiens, 72 hours treatment
Procedure: as §1, §2, §3, §4, §5, §6, §7

[4] = molecular target: T1, EGFR(L747-E749del, A750P) (Homo sapiens, UniProt P00533, A750P/DEL747-749); assay: In vitro kinase assay (kinase-tagged phage, affinity beads, qPCR); assay type: binding
T1 construct: made in house; host or cells: E. coli BL21-derived host (T7 phage) or HEK-293 cells
T1 sequence (P00533 with tags, fused parts or gaps DEL747-749/A750P): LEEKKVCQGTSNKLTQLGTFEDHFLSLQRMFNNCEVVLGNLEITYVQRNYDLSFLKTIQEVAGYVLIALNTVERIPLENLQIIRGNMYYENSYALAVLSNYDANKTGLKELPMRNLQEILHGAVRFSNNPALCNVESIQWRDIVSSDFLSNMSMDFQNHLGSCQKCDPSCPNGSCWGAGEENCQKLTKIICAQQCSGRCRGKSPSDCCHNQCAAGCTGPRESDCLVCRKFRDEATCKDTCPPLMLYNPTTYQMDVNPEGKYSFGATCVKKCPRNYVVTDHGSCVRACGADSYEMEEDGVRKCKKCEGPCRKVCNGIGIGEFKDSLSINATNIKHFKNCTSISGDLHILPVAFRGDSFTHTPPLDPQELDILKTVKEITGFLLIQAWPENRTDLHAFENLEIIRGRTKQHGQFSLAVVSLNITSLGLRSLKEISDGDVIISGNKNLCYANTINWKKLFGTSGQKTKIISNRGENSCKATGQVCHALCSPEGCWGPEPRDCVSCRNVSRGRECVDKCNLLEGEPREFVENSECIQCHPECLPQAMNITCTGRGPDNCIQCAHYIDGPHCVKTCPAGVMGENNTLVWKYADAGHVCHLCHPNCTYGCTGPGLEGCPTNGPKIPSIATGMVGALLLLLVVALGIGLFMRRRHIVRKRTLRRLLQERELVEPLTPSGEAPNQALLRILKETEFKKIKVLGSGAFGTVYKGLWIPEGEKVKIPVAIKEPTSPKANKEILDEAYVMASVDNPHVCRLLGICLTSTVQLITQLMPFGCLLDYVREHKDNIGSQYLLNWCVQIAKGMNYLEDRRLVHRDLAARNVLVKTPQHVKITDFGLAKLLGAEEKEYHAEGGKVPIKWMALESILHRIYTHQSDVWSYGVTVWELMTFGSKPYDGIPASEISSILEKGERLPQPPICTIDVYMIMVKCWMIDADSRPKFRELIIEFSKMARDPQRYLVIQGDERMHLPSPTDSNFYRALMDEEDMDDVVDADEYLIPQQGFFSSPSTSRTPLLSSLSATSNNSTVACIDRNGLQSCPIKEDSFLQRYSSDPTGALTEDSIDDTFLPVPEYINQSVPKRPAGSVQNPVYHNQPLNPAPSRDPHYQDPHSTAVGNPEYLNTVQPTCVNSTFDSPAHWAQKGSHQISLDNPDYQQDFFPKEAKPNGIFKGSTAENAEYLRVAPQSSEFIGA
Procedure: (§8) An In Vitro Assay which Determines the Ability of a Test Compound to Inhibit Kinase:
(§9) Kinase-tagged T7 phage strains were prepared in an E. coli host derived from the BL21 strain. E. coli were grown to log-phase and infected with T7 phage and incubated with shaking at 32° C. until lysis. The lysates were centrifuged and filtered to remove cell debris. The remaining kinases were produced in HEK-293 cells and subsequently tagged with DNA for qPCR detection. Streptavidin-coated magnetic beads were treated with biotinylated small molecule ligands for 30 minutes at room temperature to generate affinity resins for kinase assays. The liganded beads were blocked with excess biotin and washed with blocking buffer (SeaBlock (Pierce), 1% BSA, 0.05% Tween 20, 1 mM DTT) to remove unbound ligand and to reduce non-specific binding. […] All reactions were performed in polystyrene 96-well plates in a final volume of 0.135 ml. […] The kinase concentration in the eluates was measured by qPCR.

[5] = molecular target: T2, ERBB4 (Homo sapiens, UniProt Q15303); assay: as above; assay type: binding; conditions: Table A
T2 construct: made in house; host or cells: E. coli BL21-derived host (T7 phage) or HEK-293 cells
T2 sequence (Q15303 26-1308): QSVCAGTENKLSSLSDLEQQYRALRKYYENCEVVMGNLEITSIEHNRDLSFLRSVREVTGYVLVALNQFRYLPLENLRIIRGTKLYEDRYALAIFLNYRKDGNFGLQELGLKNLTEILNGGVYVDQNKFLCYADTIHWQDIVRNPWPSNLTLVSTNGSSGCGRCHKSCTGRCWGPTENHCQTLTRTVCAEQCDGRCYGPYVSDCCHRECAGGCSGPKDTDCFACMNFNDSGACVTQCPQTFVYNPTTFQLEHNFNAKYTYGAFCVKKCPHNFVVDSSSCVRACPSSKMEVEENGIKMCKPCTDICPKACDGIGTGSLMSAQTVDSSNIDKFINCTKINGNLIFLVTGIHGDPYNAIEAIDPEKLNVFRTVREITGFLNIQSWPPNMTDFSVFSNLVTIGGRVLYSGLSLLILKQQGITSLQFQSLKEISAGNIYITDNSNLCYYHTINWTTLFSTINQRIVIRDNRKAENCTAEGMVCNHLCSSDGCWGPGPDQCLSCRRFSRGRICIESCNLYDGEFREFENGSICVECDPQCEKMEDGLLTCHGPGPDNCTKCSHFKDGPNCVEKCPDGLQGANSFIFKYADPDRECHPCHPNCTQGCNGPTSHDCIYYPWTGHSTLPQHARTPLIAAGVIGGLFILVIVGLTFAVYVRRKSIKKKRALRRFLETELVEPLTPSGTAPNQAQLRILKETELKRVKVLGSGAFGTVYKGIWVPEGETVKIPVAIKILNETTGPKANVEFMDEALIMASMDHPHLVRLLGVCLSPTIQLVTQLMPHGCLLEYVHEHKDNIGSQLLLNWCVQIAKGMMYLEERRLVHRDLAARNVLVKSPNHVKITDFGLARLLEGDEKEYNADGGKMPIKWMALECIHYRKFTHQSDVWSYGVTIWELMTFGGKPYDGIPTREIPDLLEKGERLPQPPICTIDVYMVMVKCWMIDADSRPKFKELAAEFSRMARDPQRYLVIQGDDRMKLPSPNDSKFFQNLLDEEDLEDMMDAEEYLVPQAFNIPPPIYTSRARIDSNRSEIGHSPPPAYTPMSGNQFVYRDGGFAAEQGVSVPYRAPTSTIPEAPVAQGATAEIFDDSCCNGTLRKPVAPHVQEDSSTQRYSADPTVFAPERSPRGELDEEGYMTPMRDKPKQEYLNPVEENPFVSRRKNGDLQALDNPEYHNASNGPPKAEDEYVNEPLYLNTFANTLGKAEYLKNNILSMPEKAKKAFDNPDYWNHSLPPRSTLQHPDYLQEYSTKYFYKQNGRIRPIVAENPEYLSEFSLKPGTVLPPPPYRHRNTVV
Procedure: as §8, §9

[6] = Solubility measurement (HPLC); assay type: physicochemical; conditions: for solubility at 30 min: aqueous buffer, thermodynamic from solid, 25° C.
Procedure: The compound was diluted with acetonitrile to 100 mL.
The solution was shook for 2 minutes and left for 30 minutes at 25° C. After standing for 30 minutes, precipitate was formed in the bottom of the EP. The solutions was filtered through 0.2 μm membrane filter, and then diluted by 50 times with water.
The standard and sample solutions were injected into the HPLC on a Shim-Pack CLC-ODS C18 column (150 mm×6.0 mm, 5 um) with the same volume. The mobile phase consisted of acetonitrile with 2% trichloromethane-20 mM KH2PO4 buffer (pH=7.0) at a flow rate of 1 mL/minutes (40:60). The detection wavelength is at 264 nm. Calculation: solubility of sample=the concentration of standard×Area of sample×50/Area of standard.

[7] = molecular target: T3, CYP 3A4 (Homo sapiens, UniProt P08684); assay: P450 3A4 assay in human liver microsomes; assay type: in vitro ADME; conditions: for IC50: probe substrate testosterone
T3 construct: Incubation mixtures in duplicate contain pooled human liver microsome (0.1 mg/mL); from tissue; host or cells: pooled human liver microsomes
T3 sequence (P08684 whole entry): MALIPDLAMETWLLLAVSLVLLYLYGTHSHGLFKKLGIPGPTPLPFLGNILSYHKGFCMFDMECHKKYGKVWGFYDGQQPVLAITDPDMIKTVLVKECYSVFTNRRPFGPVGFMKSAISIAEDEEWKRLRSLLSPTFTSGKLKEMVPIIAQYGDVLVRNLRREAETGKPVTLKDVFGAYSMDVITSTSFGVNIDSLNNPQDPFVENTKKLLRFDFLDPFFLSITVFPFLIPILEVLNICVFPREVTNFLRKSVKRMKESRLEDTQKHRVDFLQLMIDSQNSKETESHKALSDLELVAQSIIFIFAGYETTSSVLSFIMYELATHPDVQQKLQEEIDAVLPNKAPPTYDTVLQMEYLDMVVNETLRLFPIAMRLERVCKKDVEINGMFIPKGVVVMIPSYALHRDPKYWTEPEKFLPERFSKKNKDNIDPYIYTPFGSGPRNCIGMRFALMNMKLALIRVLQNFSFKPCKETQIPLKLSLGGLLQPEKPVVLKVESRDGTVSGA
Procedure: The final concentrations of DMSO and acetonitrile were equal or less than 0.1%.
The column temperature was maintained at ambient temperature (25° C.). […] The flow rate was maintained at 0.6 mL/min.

[8] = pH 7.0 buffer solution (20 mM), pH 7.0 buffer (20 mM), read-out: Solubility at pH 7.0
[9] = pH 10.0 buffer solution (20 mM), pH 10.0 buffer (20 mM), read-out: Solubility at pH 10.0

Row | SMILES | rate of metabolism (k) in Rat whole blood [1] | K value compared with PF-06463922 and Compound 10 ([1]; rat whole blood, comparison in words) | IC50 [2] [µM] | IC50 [3] [µM] | inhibitor potency for mutant EGFR (L747-E749del, A750P) [4] [µM] | Kinase Inhibition EGFR(L747-E749del, A750P) ([4]; mutant EGFR, Table A) [µM] | Kinase Inhibition ERBB4 [5] [µM] | solubility compared with compound A at pH=7.0 ([6]; pH 7.0, comparison in words) | solubility at 30 min [6, 8] [µg/mL] | solubility at 30 min [6, 9] [µg/mL] | IC50 [7] [µM] | Cytochrome P450 3A4 inhibition (DDI risk class) [7]
1 | C[C@H]1Oc2cc(cnc2NC(=O)CN)-c2c(nn(C)c2C#N)CN(C)C(=O)c2ccc(F)cc21 [Compound 6, (10R)-7-(2-aminoacetyl)amino-12-fluoro-2,10,16-trimethyl-15-oxo-10,15,16,17-tetrahydro-2H-8,4-(metheno)pyrazolo[4,3-h][2,5,11]-benzoxadiazacyclotetradecine-3-carbonitrile] | 0.6169 | much larger K value | 65.6 | 77.1 | 0.42 | 0.4 | 5.7 | much higher solubility | 91 (≈ 196 µM) | 36 (≈ 77.7 µM) | 10 | –
2 | CC(=O)Nc1ncc2cc1O[C@H](C)c1cc(F)ccc1C(=O)N(C)Cc1nn(C)c(C#N)c1-2 [Compound 10, (10R)-7-acetamido-12-fluoro-2,10,16-trimethyl-15-oxo-10,15,16,17-tetrahydro-2H-8,4-(metheno)pyrazolo[4,3-h][2,5,11]-benzoxadiazacyclotetradecine-3-carbonitrile] | 0.07435 | – | – | – | – | – | – | – | – | – | 14 | –
3 | C[C@H]1Oc2cc(cnc2N)-c2c(nn(C)c2C#N)CN(C)C(=O)c2ccc(F)cc21 [Compound A, (10R)-7-amino-12-fluoro-2,10,16-trimethyl-15-oxo-10,15,16,17-tetrahydro-2H-8,4-(metheno)pyrazolo[4,3-h][2,5,11]-benzoxadiazacyclotetradecine-3-carbonitrile, reference compound] | −0.07473 | – | – | – | – | – | – | – | 29 (≈ 71.4 µM) | 28 (≈ 68.9 µM) | – | moderate (3 μM<IC50<10 μM CYP inhibition moderate)
